According to patent US20240024494A1, “SMALL-MOLECULE CONJUGATE AND USE THEREOF” (SHANGHAI MEWSGEN BIOTECHNOLOGY CO., LTD, priority 2020, published 2024):
Read-outs that look alike come from different tables or passages of the source.

Legend:
[1] = test system: HCT116 (human colon cancer cells); experiment: Tumor cell proliferation inhibition test, CCK-8 method (Example 21); assay type: cell-based
Protocol: (§1) A part of the compounds prepared in the examples of the present disclosure were subjected to a tumor cell proliferation inhibition test by using a CCK-8 method. Cell lines HCT116 (human colon cancer cells), MGC803 (human gastric cancer cells), and MIA PACA-2 (human pancreatic cancer cells) were purchased from Shanghai Meixuan Technology Co., Ltd. Samples (a part of the compounds prepared in the examples) were dissolved in DMSO (Merck), prepared into a concentration of 10 mM, and finally triply diluted in DMEM or McCoy's 5A 1640 medium to 8 concentration gradients. A cell culture solution was collected when a cell culture met a test requirement, 10 μL of the cell culture solution was uniformly coated on a cell counting plate, cells were counted for 3 times under a microscope, and a cell density was calculated by taking an average value; and a 96-well plate (Corning, #3599) was taken, 200 μL of the cell culture solution was added into each well for cell inoculation at a cell concentration of 6×10^3 cells per well, and the inoculated 96-well plate was incubated in a cell incubator containing 5% CO2 at 37° C. for 24 h. An old culture medium was removed by suction, 200 μL of the triply diluted sample DMEM or McCoy's 5A 1640 medium at an initial concentration of 10 μmol/L was added to each well, the DMSO content was controlled to be 1%, three duplicate wells were set, PBS was used as a blank control, and the plate was incubated in the incubator for 72 h. The original DMEM or McCoy's 5A 1640 medium in the 96-well plate and a PBS buffer in a final row were sucked out, a prepared CCK-8 solution (90% DMEM or McCoy's 5A 1640 medium+10% CCK-8) was added, the mixture was incubated in an incubator, and an absorbance was read by using a Biotek microplate reader. Cell growth inhibition rate IC %=(blank control well OD value−administration well OD value)/blank control well OD value×100%.

[2] = test system: MIA PACA-2 (human pancreatic cancer cells); experiment: as above; assay type: cell-based
Protocol: as §1

[3] = test system: MGC803 (human gastric cancer cells); experiment: as above; assay type: cell-based
Protocol: as §1

[4] = test system: tumor cell strains (colon cancer, pancreatic cancer, esophageal squamous carcinoma, gastric cancer, glioma); experiment: Summary of in-vitro proliferation inhibition on tumor cell strains (Examples 19-21); assay type: cell-based, human
Protocol: as §1, with “A cell line” for “Cell lines”, “carcinoma cells)” for “cancer cells), MGC803 (human gastric cancer cells),”, “SW1990” for “MIA PACA-2”, “carcinoma” for “cancer”
In-vitro activity test: 100 μL of a cell suspension at a concentration of 4-5×10^4/mL was added to each well of a 96-well plate, and placed in a 5% CO2 incubator at 37° C. After 24 h, a sample solution was added at 10 μL/well, double duplicate wells were set, and a reaction was performed at 37° C. with 5% CO2 for 72 h. 20 μL of 5 mg/ml of an MTT solution was added into each well and reacted for 4 h, a dissolving solution was added at 100 μL/well, the mixture was placed in an incubator, and after dissolution, an OD value at 570 nm was measured with a full-wavelength multifunctional microplate reader. An inhibition rate (IR) and a median inhibitory concentration (IC50) were calculated by using an Excel software.
A part of the compounds prepared in the examples of the present disclosure were subjected to a tumor cell proliferation inhibition test by using a CCK-8 method. Cell lines HCT116 (human colon cancer cells), MGC803 (human gastric cancer cells), and MIA PACA-2 (human pancreatic cancer cells) were purchased from Shanghai Meixuan Technology Co., Ltd. Samples (a part of the compounds prepared in the examples) were dissolved in DMSO (Merck), prepared into a concentration of 10 mM, and finally triply diluted in DMEM or McCoy's 5A 1640 medium to 8 concentration gradients. A cell culture solution was collected when a cell culture met a test requirement, 10 μL of the cell culture solution was uniformly coated on a cell counting plate, cells were counted for 3 times under a microscope, and a cell density was calculated by taking an average value; and a 96-well plate (Corning, #3599) was taken, 200 μL of the cell culture solution was added into each well for cell inoculation at a cell concentration of 6×10^3 cells per well, and the inoculated 96-well plate was incubated in a cell incubator containing 5% CO2 at 37° C. for 24 h. […]

[5] = CCK-8, 72 h, Table 3, read-out: IC50 HCT116
[6] = CCK-8, 72 h, Table 3, read-out: IC50 MIA PACA-2
[7] = CCK-8, 72 h, Table 3, read-out: IC50 MGC803

Structure (SMILES)	IC50 [1, 5]	IC50 [2, 6]	IC50 [3, 7]	Proliferation inhibition activities IC50 on most tumor cell strains (in words) [4]	IC50 ([1]; 72 h)	IC50 ([2]; 72 h)	IC50 ([3]; 72 h)
COc1cc(C(=O)NCCOCCOCCOCCC(=O)N[C@H](C(=O)N[C@@H](CCCNC(N)=O)C(=O)Nc2ccc(COC(=O)N3CCN(C(=O)O[C@H]4CC[C@@]5(C)[C@H](CC[C@@H]6[C@@H]5[C@H](O)C(=O)[C@]5(C)C(c7ccc(=O)oc7)CC[C@]65O)C4)CC3)cc2)C(C)C)ccc1NC(=O)[C@@H]1N[C@@H](CC(C)(C)C)[C@](C#N)(c2ccc(Cl)cc2F)[C@H]1c1cccc(Cl)c1F (some centres unmarked) [Compound I-2]	26 nM	212 nM	54 nM	between several to hundreds of nanomoles			
COc1cc(C(=O)NCCOCCOCCOCCC(=O)N[C@H](C(=O)N[C@@H](CCCNC(N)=O)C(=O)Nc2ccc(COC(=O)N3CCC(NC(=O)O[C@H]4CC[C@]5(C)C6CC[C@]7(C)[C@@H](c8ccc(=O)oc8)CC[C@]7(O)C6CC[C@@H]5C4)CC3)cc2)C(C)C)ccc1NC(=O)[C@@H]1N[C@@H](CC(C)(C)C)[C@](C#N)(c2ccc(Cl)cc2F)[C@H]1c1cccc(Cl)c1F (some centres unmarked) [Compound I-5]	236 nM	442 nM	116 nM				
COc1cc(C(=O)NCCOCCOCCOCCOCCOCCOCCC(=O)N[C@@H](C(=O)N[C@@H](CCCNC(N)=O)C(=O)Nc2ccc(COC(=O)N3CCC(NC(=O)O[C@H]4CC[C@]5(C)C6CC[C@]7(C)C(c8ccc(=O)oc8)CC[C@]7(O)C6CC[C@@H]5C4)CC3)cc2)C(C)C)ccc1NC(=O)[C@@H]1N[C@@H](CC(C)(C)C)[C@](C#N)(c2ccc(Cl)cc2F)[C@H]1c1cccc(Cl)c1F (some centres unmarked) [Compound I-7]	1290 nM	3530 nM	292 nM				
COc1cc(C(=O)NCCOCCOCCOCCOCCOCCOCCC(=O)N[C@@H](C(=O)N[C@@H](CCCNC(N)=O)C(=O)Nc2ccc(COC(=O)N3CCN(C(=O)O[C@H]4CC[C@@]5(C)[C@H](CC[C@@H]6[C@@H]5[C@H](O)C(=O)[C@]5(C)C(c7ccc(=O)oc7)CC[C@]65O)C4)CC3)cc2)C(C)C)ccc1NC(=O)[C@@H]1N[C@@H](CC(C)(C)C)[C@](C#N)(c2ccc(Cl)cc2F)[C@H]1c1cccc(Cl)c1F (some centres unmarked) [Compound I-8]	12 nM	87 nM	12 nM	between several to hundreds of nanomoles			
COc1cc(C(=O)NCCOCCOCCOCCOCCC(=O)N[C@H](C(=O)N[C@@H](C)C(=O)Nc2ccc(COC(=O)N3CCN(C(=O)O[C@H]4CC[C@@]5(C)[C@H](CC[C@@H]6[C@@H]5[C@H](O)C(=O)[C@]5(C)[C@@H](c7ccc(=O)oc7)CC[C@]65O)C4)CC3)cc2)C(C)C)ccc1NC(=O)[C@@H]1N[C@@H](CC(C)(C)C)[C@](C#N)(c2ccc(Cl)cc2F)[C@H]1c1cccc(Cl)c1F [Compound I-10]	395 nM	443 nM	307 nM				
COc1cc(C(=O)NCCOCCOCCOCCOCCC(=O)N[C@H](C(=O)N[C@@H](C)C(=O)Nc2ccc(COC(=O)N3CCC(NC(=O)O[C@H]4CC[C@]5(C)C6CC[C@]7(C)[C@@H](c8ccc(=O)oc8)CC[C@]7(O)C6CC[C@@H]5C4)CC3)cc2)C(C)C)ccc1NC(=O)[C@@H]1N[C@@H](CC(C)(C)C)[C@](C#N)(c2ccc(Cl)cc2F)[C@H]1c1cccc(Cl)c1F (some centres unmarked) [Compound I-11]	27 nM	68 nM	10 nM	between several to hundreds of nanomoles			
COc1cc(C(=O)NCCOCCOCCOCCOCCC(=O)N[C@@H](CCSC)C(=O)N[C@@H](CCCNC(N)=O)C(=O)Nc2ccc(COC(=O)O[C@@H](C(=O)O[C@H]3C[C@@]4(O)[C@@H](OC(=O)c5ccccc5)C5[C@](C)(C(=O)[C@H](OC(C)=O)C(=C3C)C4(C)C)[C@@H](O)C[C@H]3OC[C@@]53OC(C)=O)[C@@H](NC(=O)c3ccccc3)c3ccccc3)cc2)ccc1NC(=O)[C@@H]1N[C@@H](CC(C)(C)C)[C@](C#N)(c2ccc(Cl)cc2F)[C@H]1c1cccc(Cl)c1F (some centres unmarked) [Compound I-12]					5260 nM	542 nM	626 nM
COc1cc(C(=O)NCCOCCOCCOCCOCCC(=O)N[C@@H](CCSC)C(=O)N[C@@H](CCCNC(N)=O)C(=O)Nc2ccc(COC(=O)N3CCN(C(=O)O[C@H]4CC[C@@]5(C)[C@H](CC[C@@H]6[C@@H]5[C@H](O)C(=O)[C@]5(C)[C@@H](c7ccc(=O)oc7)CC[C@]65O)C4)CC3)cc2)ccc1NC(=O)[C@@H]1N[C@@H](CC(C)(C)C)[C@](C#N)(c2ccc(Cl)cc2F)[C@H]1c1cccc(Cl)c1F [Compound I-13]	14 nM	24 nM	14 nM	between several to hundreds of nanomoles			
COc1cc(C(=O)NCCOCCOCCOCCOCCC(=O)N[C@@H](CCSC)C(=O)N[C@@H](CCCNC(N)=O)C(=O)Nc2ccc(COC(=O)N3CCC(NC(=O)O[C@H]4CC[C@]5(C)C6CC[C@]7(C)[C@@H](c8ccc(=O)oc8)CC[C@]7(O)C6CC[C@@H]5C4)CC3)cc2)ccc1NC(=O)[C@@H]1N[C@@H](CC(C)(C)C)[C@](C#N)(c2ccc(Cl)cc2F)[C@H]1c1cccc(Cl)c1F (some centres unmarked) [Compound I-14]	483 nM	670 nM	249 nM	between several to hundreds of nanomoles			
